The values below come from patent US20110312934A1, “2-ALKYL-6-CYCLOAMINO-3-(PYRIDIN-4-YL)IMIDAZO[1,2-B]-PYRIDAZINE DERIVATIVES, PREPARATION THEREOF, AND THERAPEUTIC APPLICATION THEREOF” (SANOFI-AVENTIS, priority 2008, published 2011).

Data set [1] concerns Mper1-luc Rat-1 (P2C4) fibroblasts. Put plainly: Circadian cell assay (mPer1 luciferase reporter, period prolongation). To be noted: effective concentration that induced a 1-hour prolongation of the circadian period, interpolated from hyperbolic curve. The format is cell-based. On the procedure:
Mper1-luc Rat-1 (P2C4) fibroblast cultures were prepared by dividing the cultures every 3-4 days (approximately 10-20% of confluence) on 150 cm^2 degassed polystyrene tissue culture flasks (Falcon® #35-5001) and maintained in growth medium [EMEM (Cellgro #10-0,0-CV); 10% foetal bovine serum (FBS; Gibco #16000-044); and 50 I.U./ml of penicillin-streptomycin (Cellgro #30-001-CI)] at 37° C. and under 5% CO2.
Cells obtained from Rat-1 fibroblast cultures at 30-50% of confluence as described above were co-transfected with vectors containing the selection marker for resistance to zeocin for a stable transfection and a luciferase reporter gene controlled by the mPer-1 promoter. After 24 to 48 hours, the cultures were divided on 96-well plates and maintained in growth medium supplemented with 50-100 μg/ml of zeocin (Invitrogen® #45-0430) for 10-14 days. The zeocin-resistant stable transfectants were evaluated for the expression of the reporter by adding 100 μM luciferin (Promega® #E1603®) to the growth medium and by assaying the luciferase activity on a TopCount® scintillation counter (Packard Model #C384V00). The Rat-1 cell clones expressing both zeocin resistance and lucerifase activity controlled by mPer1 were serum-shock synchronized with 50% horse serum [HS (Gibco® #16050-122)] and the activity of the circadian reporter was evaluated. The P2C4 clone of Mper1-luc Rat-1 fibroblasts was selected to test the compound.
Mper1-luc Rat-1 (P2C4) fibroblasts at 40-50% of confluence, obtained according to the protocol described above, were plated out onto 96-well opaque tissue culture plates (Perkin Elmer® #6005680). The cultures are maintained in growth medium supplemented with 100 μg/ml of zeocin (Invitrogen #45-0430) until they reach 100% of confluence (48-72 h). The cultures were then synchronized with 100 μl of synchronization medium [EMEM (Cellgro #10-0,0-CV); 100 I.U./ml of penicillin-streptomycin (Cellgro #30-001-C1); 50% HS (Gibco #16050-122)] for 2 hours at 37° C. and under 5% CO2. After synchronization, the cultures were rinsed with 100 μl of EMEM (Cellgro #10-010-CV) for 10 minutes at ambient temperature. After rinsing, the medium was replaced with 300 μl of CO2 independent medium [CO2I (Gibco #18045-088); 2 mM L-glutamine (Cellgro #25-005-C1); 100 U.I./ml of penicillin-streptomycin (Cellgro #30-001-C1); 100 μM luciferin (Promega #E 1603)]. […]
The two methods produced a virtually identical period estimation on a range of circadian periods. […] The data were analysed by adjusting a hyperbolic curve to the data expressed as change of period (y-axis) as a function of the concentration of the test compound (x-axis) in the XLfit™ software and the CE Delta (t+1 h) was interpolated from this curve.

The target in data set [2] is T1, casein kinase 1 epsilon (CK1 epsilon) (Homo sapiens, UniProt P49674).
T1 construct: Invitrogen Corporation (alternative)
T1 sequence (P49674 whole entry): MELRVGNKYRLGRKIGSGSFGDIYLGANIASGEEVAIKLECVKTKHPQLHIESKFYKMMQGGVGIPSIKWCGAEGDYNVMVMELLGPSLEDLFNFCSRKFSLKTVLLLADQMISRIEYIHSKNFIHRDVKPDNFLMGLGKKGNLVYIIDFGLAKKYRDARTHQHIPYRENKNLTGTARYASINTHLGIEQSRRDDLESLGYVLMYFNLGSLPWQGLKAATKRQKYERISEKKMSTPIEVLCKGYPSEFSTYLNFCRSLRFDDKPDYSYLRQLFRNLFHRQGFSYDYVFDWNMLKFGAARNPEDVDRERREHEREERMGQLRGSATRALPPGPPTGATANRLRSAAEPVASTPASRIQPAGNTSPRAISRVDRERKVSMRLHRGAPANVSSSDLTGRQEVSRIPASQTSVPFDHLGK
Put plainly: Filter-plate assay of ATP-33P, inhibition of phosphorylation of casein by CK1 epsilon. The conditions noted are these: ATP-33P filtration, cold ATP 10 μM final, 2 hours at ambient temperature, read-out: CK1 epsilon Cl50. The format is biochemical. On the procedure: The capacity of the compounds of the invention to inhibit the phosphorylation of casein by casein kinase 1 epsilon and delta may be evaluated according to the procedure described in US 2005/0131012.
Filter-Plate Assay of ATP-^33P for the Screening of CK1 Epsilon Inhibitors:
The effect of the compounds on inhibition of the phosphorylation of casein by the enzyme casein kinase 1 epsilon (CK1 epsilon) is measured, using a casein assay with filtration of ATP-^33P in vitro.
Casein kinase 1 epsilon (0.58 mg/ml) is obtained via fermentation and purification processes performed according to methods that are well known to those skilled in the art, or may also be obtained from Invitrogen Corporation™ (human CK1 epsilon).
The compounds are tested at five different concentrations so as to generate IC50 values, i.e. the concentration at which a compound is capable of inhibiting the enzymatic activity by 50%, or alternatively the percentage of inhibition at a concentration of 10 micromolar.
“U”-bottomed Falcon plates are prepared by placing 5 μl of solutions of the compounds according to the invention at concentrations of 10, 1, 0.1, 0.01 or 0.001 μM in different wells. The solutions of the compounds according to the invention at these various concentrations are prepared by diluting in a test buffer (50 mM Tris, pH 7.5, […], 2 mM DTT and 1 mM EGTA) a stock solution in DMSO at a concentration of 10 mM. Next, 5 μl of dephosphorylated casein are added to a final concentration of 0.2 μg/μl, 20 μl of CK1 epsilon to a final concentration of 3 ng/μl, and 20 μl of ATP-^33P to a final concentration of 0.02 μCi/μl mixed with cold ATP (10 μM final—approximately 2×10^6 CPM per well). The final total test volume per well is equal to 50 μl.
The “U”-bottomed Falcon® test plate mentioned above is vortexed, and then incubated at ambient temperature for 2 hours. After 2 hours, the reaction is stopped by adding an ice-cold solution of 65 μl of ATP (2 mM) prepared in test buffer.
100 μl of the reaction mixture are then transferred from the “U”-bottomed Falcon® plate into Millipore® MAPH filter plates, preimpregnated with 25 μl of ice-cold 100% TCA. […]
The plates are left to dry overnight at ambient temperature. […] The radiation emitted by each well is then measured for 2 minutes in a Packard® Topcount NXT scintillation counter, in which the values of CPM/well are measured.
The percentage inhibition of the capacity of the enzyme to phosphorylate the substrate (casein) is determined for each concentration of compound tested. These inhibition data expressed as percentages are used to calculate the IC50 value for each compound compared with the controls.
The kinetic studies determined the KM value for ATP as being 21 μM in this test system.

Another data set deals with T2, human CK1 delta (Homo sapiens, UniProt P48730).
T2 construct: purchased Invitrogen Corporation PV3665
T2 sequence (P48730 whole entry): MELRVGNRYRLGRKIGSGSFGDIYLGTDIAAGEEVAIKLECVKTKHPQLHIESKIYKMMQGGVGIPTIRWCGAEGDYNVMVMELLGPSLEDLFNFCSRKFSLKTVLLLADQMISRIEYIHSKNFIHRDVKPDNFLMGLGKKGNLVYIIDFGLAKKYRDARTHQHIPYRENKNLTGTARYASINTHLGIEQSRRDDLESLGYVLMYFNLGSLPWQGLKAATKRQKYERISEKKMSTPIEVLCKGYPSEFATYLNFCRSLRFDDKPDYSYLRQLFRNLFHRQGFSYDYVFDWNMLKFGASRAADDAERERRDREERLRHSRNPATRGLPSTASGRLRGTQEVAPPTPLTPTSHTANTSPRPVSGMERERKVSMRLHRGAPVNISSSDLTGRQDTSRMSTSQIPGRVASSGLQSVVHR
Put plainly: FRET Z'Lyte kinase assay, CK1 delta. Type of data set: biochemical. The conditions noted are these: peptide substrate SER/THR 11 2 μM, ATP 4 times the KM, read-out: CK1 delta Cl50. The source says: The capacity of the compounds of the invention to inhibit the phosphorylation of casein by casein kinase 1 epsilon and delta may be evaluated using a FRET (Fluorescence Resonance Energy Transfer) fluorescence test with the aid of the Z'Lyte™ kinase assay Kit (reference PV3670; Invitrogen Corporation™) according to the manufacturer's instructions.
The casein kinases 1 used are obtained from Invitrogen Corporation (human CK1 epsilon PV3500 and human CK1 delta PV3665).
A peptide substrate, labelled at both ends with a fluorophore donor group (coumarin) and a fluorophore acceptor group (fluorescein), constituting a FRET system is phosphorylated in the presence of ATP by casein kinase 1 epsilon or delta in the presence of increasing concentrations of compounds of the invention.
The mixture is treated with a site-specific protease that specifically cleaves the peptide substrate to form two fluorescent fragments having a large fluorescence emission ratio.
The fluorescence observed is thus related to the capacity of the products of the invention to inhibit the phosphorylation of the peptide substrate by casein kinase 1 epsilon or casein kinase 1 delta. […]
The emitted fluorescence is measured at wavelengths of 445 and 520 nm (excitation at 400 nm).

Take `CC1(C)CN(c2ccc3nc(C4CC4)c(-c4ccnc(F)c4)n3n2)CCN1` [Compound 53, 2-Cyclopropyl-6-(3,3-dimethylpiperazin-1-yl)-3-(2-fluoropyridin-4-yl)imidazo[1,2-b]pyridazine]: in data set [1], the “CE Delta (t + 1 h)” value was 319 nM. Besides, the IC50 in data set [2] was found to be 292 nM.
For the molecule `Cc1nc2ccc(N3C[C@@H](C)N[C@@H](C)C3)nn2c1-c1ccncc1` [Compound 54, 6-(cis-3,5-Dimethylpiperazin-1-yl)-2-methyl-3-pyridin-4-ylimidazo[1,2-b]pyridazine], the IC50 at human CK1 delta was < 1 nM.
Usually melting point stands for the temperature, or range, at which the solid turns liquid. `Cc1nc2ccc(N3CC4CNCC4C3)nn2c1-c1ccncc1` (centres unmarked) [Compound 66, 6-Hexahydropyrrolo[3,4-c]pyrrol-2(1H)-yl-2-methyl-3-pyridin-4-ylimidazo[1,2-b]pyridazine] gave a melting point of 153 to 155 °C. Also, the “CE Delta (t + 1 h)” value in data set [1] was 633 nM. In data set [2], the IC50 is 13 nM.
Turning to `Cc1nc2ccc(N3CCC4(CCCNC4)CC3)nn2c1-c1ccncc1` [Compound 78, 9-(2-Methyl-3-pyridin-4-yl-imidazo[1,2-b]pyridazin-6-yl)-2,9-diazaspiro[5.5]undecane], the “CE Delta (t + 1 h)” value in data set [1] came to 515 nM. Also, the IC50 in data set [2] was 78 nM.
